According to patent publication US8680052B1, “Methods of treating, reducing the incidence of, and/or preventing ischemic events” (The Medicines Company, priority 2013, dated 2014):
Where two headings read alike, the source gives them in different places.

Tested on: patients with acute coronary syndromes undergoing PCI
Conditions: for All-cause mortality OR (95% CI) / IDR OR (95% CI) / MI OR (95% CI) / Mortality/MI/IDR OR (95% CI) / Mortality/Q-wave MI/IDR OR (95% CI) / Mortality/Q-wave MI/Stent thrombosis OR (95% CI) / Q-wave MI OR (95% CI) / Stent thrombosis OR (95% CI): Cangrelor vs Clopidogrel; for Angiographic complications (site reported): Abrupt vessel closure / Angiographic complications (site reported): Acute stent thrombosis / Angiographic complications (site reported): Need for urgent CABG / Angiographic complications (site reported): New thrombus or suspected thrombus / Angiographic complications (site reported): Threatened abrupt closure / Angiographic complications (site reported): Unsuccessful procedure: index PCI
Protocol: Patients were eligible for enrollment if they had stable angina, unstable angina, or non-ST-segment elevation (NSTE) MI with obstructive coronary artery disease and were scheduled to undergo PCI.
The infusion began within 30 minutes prior to PCI and continued for at least 2 hours or until the conclusion of the index procedure, whichever was longer. At the treating physician's discretion, the infusion could be continued for 4 hours.
All patients received aspirin 75-325 mg per local site standards. Adjunctive anticoagulants (unfractionated heparin, low molecular weight heparin, bivalirudin, or fondaparinux) and the procedural use of glycoprotein IIb/IIIa inhibitors were determined by the treating physician.
The primary efficacy endpoint was the 48-hour composite of all-cause mortality, MI, or ischemia-driven revascularization. Prespecified secondary efficacy endpoints included the composite of mortality or MI at 48 hours and 30 days; the composite of mortality, MI, or ischemia-driven revascularization at 30 days; the components of the composite endpoints at 48 hours and 30 days; stroke at 48 hours; abrupt closure, threatened abrupt closure, need for urgent coronary artery bypass grafting, or unsuccessful procedure during the index PCI; acute (24 hours) and 48 hours stent thrombosis; and all-cause mortality at 6 months and 1 year.
Rates of MI and ischemia-driven revascularization up to 30 days following the index procedure were assessed. Ischemia-driven revascularization was defined as symptoms of myocardial ischemia leading to urgent (within 24 hours of the last episode of ischemia) revascularization, which must have occurred after the index procedure concluded (i.e., guidewire removal). New electrocardiographic changes, acute pulmonary edema, ventricular arrhythmias, or hemodynamic instability could also constitute evidence of ischemia.
MI was defined by a new Q wave (duration >0.03 seconds) in two contiguous electrocardiographic leads or elevations in creatine kinase (CK) and CK-MB, including a rise of CK-MB≧3 times the local upper limit or normal and, when biomarkers were elevated prior to PCI, an additional 50% above baseline. One baseline troponin measurement was required for patients undergoing urgent PCI. Measurements of CK-MB were obtained at 2, 10, 17, and 24 hours post-PCI.
The primary efficacy analysis was to be determined in the modified intent-to-treat (mITT) population, defined as all randomized patients (excluding STEMI cohort) who received at least one dose of study drug and underwent the index PCI. The safety population consisted of all randomized patients who received any study drug. Patients in the safety analyses were assigned to a treatment arm based on treatment received, not as randomized.

CSCCNc1nc(SCCC(F)(F)F)nc2c1ncn2[C@@H]1O[C@H](COP(=O)(O)OP(=O)(O)C(Cl)(Cl)P(=O)(O)O)[C@@H](O)[C@H]1O [Cangrelor, cangrelor]
Q-wave MI (30 days, MITT Without STEMI): 7 (0.2) no. (%)
Stent thrombosis (30 days, MITT Without STEMI): 20 (0.5) no. (%)
All-cause mortality OR (95% CI) (30 days, MITT Without STEMI): 1.177 (0.704, 1.967)
IDR OR (95% CI) (30 days, MITT Without STEMI): 0.837 (0.559, 1.254)
MI OR (95% CI) (30 days, MITT Without STEMI): 1.072 (0.905, 1.272)
Mortality/MI/IDR OR (95% CI) (30 days, MITT Without STEMI): 1.044 (0.891, 1.224)
Mortality/Q-wave MI/IDR OR (95% CI) (30 days, MITT Without STEMI): 0.930 (0.679, 1.273)
Mortality/Q-wave MI/Stent thrombosis OR (95% CI) (30 days, MITT Without STEMI): 1.030 (0.702, 1.511)
Q-wave MI OR (95% CI) (30 days, MITT Without STEMI): 0.462 (0.188, 1.134)
Stent thrombosis OR (95% CI) (30 days, MITT Without STEMI): 0.991 (0.533, 1.846)
All-cause mortality OR (95% CI) (30 days, MITT): 1.046 (0.670, 1.635)
IDR OR (95% CI) (30 days, MITT): 0.902 (0.634, 1.283)
MI OR (95% CI) (30 days, MITT): 1.078 (0.914, 1.271)
Mortality/MI/IDR OR (95% CI) (30 days, MITT): 1.042 (0.895, 1.211)
Mortality/Q-wave MI/IDR OR (95% CI) (30 days, MITT): 0.927 (0.703, 1.222)
Mortality/Q-wave MI/Stent thrombosis OR (95% CI) (30 days, MITT): 0.924 (0.663, 1.290)
Q-wave MI OR (95% CI) (30 days, MITT): 0.595 (0.260, 1.362)
Stent thrombosis OR (95% CI) (30 days, MITT): 0.894 (0.530, 1.506)
All-cause mortality (30 days, Safety population): 40 (0.9) no. (%)
IDR (30 days, Safety population): 60 (1.4) no. (%)
MI (30 days, Safety population): 318 (7.4) no. (%)
Mortality/MI/IDR (30 days, Safety population): 379 (8.8) no. (%)
Mortality/Q-wave MI/IDR (30 days, Safety population): 100 (2.3) no. (%)
Mortality/Q-wave MI/Stent thrombosis (30 days, Safety population): 68 (1.6) no. (%)
Q-wave MI (30 days, Safety population): 9 (0.2) no. (%)
Stent thrombosis (30 days, Safety population): 27 (0.6) no. (%)
All-cause mortality OR (95% CI) (30 days, Safety population): 0.974 (0.629, 1.508)
IDR OR (95% CI) (30 days, Safety population): 0.893 (0.628, 1.268)
MI OR (95% CI) (30 days, Safety population): 1.090 (0.925, 1.285)
Mortality/MI/IDR OR (95% CI) (30 days, Safety population): 1.040 (0.895, 1.209)
Mortality/Q-wave MI/IDR OR (95% CI) (30 days, Safety population): 0.897 (0.682, 1.179)
Mortality/Q-wave MI/Stent thrombosis OR (95% CI) (30 days, Safety population): 0.892 (0.641, 1.240)
Q-wave MI OR (95% CI) (30 days, Safety population): 0.598 (0.262, 1.368)
Stent thrombosis OR (95% CI) (30 days, Safety population): 0.898 (0.533, 1.513)
Angiographic complications (site reported): Abrupt vessel closure (ITT): 24 (0.6)
Angiographic complications (site reported): Acute stent thrombosis (ITT): 2 (0.0)
Angiographic complications (site reported): Need for urgent CABG (ITT): 10 (0.2)
Angiographic complications (site reported): New thrombus or suspected thrombus (ITT): 17 (0.4)
Angiographic complications (site reported): Threatened abrupt closure (ITT): 13 (0.3)
Angiographic complications (site reported): Unsuccessful procedure (ITT): 90 (2.1)
Angiographic complications (site reported): Abrupt vessel closure (ITT With STEMI): 4 (0.9)
Angiographic complications (site reported): Acute stent thrombosis (ITT With STEMI): 0 (0.0)
Angiographic complications (site reported): Need for urgent CABG (ITT With STEMI): 2 (0.4)
Angiographic complications (site reported): New thrombus or suspected thrombus (ITT With STEMI): 1 (0.2)
Angiographic complications (site reported): Threatened abrupt closure (ITT With STEMI): 4 (0.9)
Angiographic complications (site reported): Unsuccessful procedure (ITT With STEMI): 9 (2.0)
Angiographic complications (site reported): Abrupt vessel closure (ITT Without STEMI): 20 (0.5)
Angiographic complications (site reported): Acute stent thrombosis (ITT Without STEMI): 2 (0.1)
Angiographic complications (site reported): Need for urgent CABG (ITT Without STEMI): 8 (0.2)
Angiographic complications (site reported): New thrombus or suspected thrombus (ITT Without STEMI): 16 (0.4)
Angiographic complications (site reported): Threatened abrupt closure (ITT Without STEMI): 9 (0.2)
Angiographic complications (site reported): Unsuccessful procedure (ITT Without STEMI): 81 (2.1)
Angiographic complications (site reported): Abrupt vessel closure (MITT): 24 (0.6)
Angiographic complications (site reported): Acute stent thrombosis (MITT): 2 (0.0)
Angiographic complications (site reported): Need for urgent CABG (MITT): 8 (0.2)
Angiographic complications (site reported): New thrombus or suspected thrombus (MITT): 17 (0.4)
Angiographic complications (site reported): Threatened abrupt closure (MITT): 13 (0.3)
Angiographic complications (site reported): Unsuccessful procedure (MITT): 90 (2.1)
Angiographic complications (site reported): Abrupt vessel closure (MITT NSTEMI): 20 (0.5)
Angiographic complications (site reported): Acute stent thrombosis (MITT NSTEMI): 2 (0.1)
Angiographic complications (site reported): Need for urgent CABG (MITT NSTEMI): 7 (0.2)
Angiographic complications (site reported): New thrombus or suspected thrombus (MITT NSTEMI): 16 (0.4)
Angiographic complications (site reported): Threatened abrupt closure (MITT NSTEMI): 9 (0.2)
Angiographic complications (site reported): Unsuccessful procedure (MITT NSTEMI): 81 (2.1)
Angiographic complications (site reported): Abrupt vessel closure (Safety population): 24 (0.6)
Angiographic complications (site reported): Acute stent thrombosis (Safety population): 2 (0.0)
Angiographic complications (site reported): Need for urgent CABG (Safety population): 8 (0.2)
Angiographic complications (site reported): New thrombus or suspected thrombus (Safety population): 17 (0.4)
Angiographic complications (site reported): Threatened abrupt closure (Safety population): 13 (0.3)
Angiographic complications (site reported): Unsuccessful procedure (Safety population): 90 (2.1)
